PMC4926077, “Synthesis of Pelorol and Its Analogs and Their Inhibitory Effects on Phosphatidylinositol 3-Kinase” (Marine Drugs, 2016)
Like-named read-outs stand apart in the source and are kept apart here.

What was measured:
U937 = test: Antiproliferative CCK8 assay, U937; assay type: cell-based; conditions: Homo sapiens, U-937, leukemia cell, 72 h incubation, average of three replicates, read-out: Relative IC50 against tumor cell line U937
Experimental: (§1) The following cell lines, MCF-7, SK-BR-3, K562, Hela, MOLT-4, DU145, U937, and PC3 were purchased from Shanghai Cell Bank, Chinese Academy of Sciences. The cells were maintained at 37 °C in a 5% CO2 incubator in DMEM (Gibco, Invitrogen, Carlsbad, CA, USA) or RPMI1640 (Gibco, Invitrogen) containing 10% FBS. Cell proliferation was determined by CCK8 assay (DOjinDo, Kyoto, Japan). Cells were seeded at a density of 800–1000 cells/well in 384 well plates and treated with solvent control or various concentration of compounds. After 72 h incubation, CCK8 reagent was added and absorbance was measured at 450 nm by using Envision 2104 multi-label Reader (Perkin Elmer, Waltham, MA, USA). Dose-response curves were plotted to determine the IC50 values using Prism 5.0 (Graph Pad software Inc., San Diego, CA, USA).

SK-BR-3 = test: Antiproliferative CCK8 assay, SK-BR-3; assay type: cell-based; conditions: Homo sapiens, 72 h incubation, average of three replicates, read-out: Relative IC50 against tumor cell line SK-BR-3
Experimental: as §1

PC3 = test: Antiproliferative CCK8 assay, PC3; assay type: cell-based; conditions: Homo sapiens, PC-3, 72 h incubation, average of three replicates, read-out: Relative IC50 against tumor cell line PC3
Experimental: as §1

MOLT-4 = test: Antiproliferative CCK8 assay, MOLT-4; assay type: cell-based; conditions: Homo sapiens, leukemia cell, 72 h incubation, average of three replicates, read-out: Relative IC50 against tumor cell line MOLT-4
Experimental: as §1

K562 = test: Antiproliferative CCK8 assay, K562; assay type: cell-based; conditions: Homo sapiens, 72 h incubation, average of three replicates, read-out: Relative IC50 against tumor cell line K562
Experimental: as §1

MCF-7 = test: Antiproliferative CCK8 assay, MCF-7; assay type: cell-based; conditions: Homo sapiens, MCF7, 72 h incubation, average of three replicates, read-out: Relative IC50 against tumor cell line MCF-7
Experimental: as §1

PI3Kα = PI3Kα (Homo sapiens, UniProt P42336); test: PI3K enzymatic activity assay (Kinase-Glo), PI3Kα; assay type: biochemical
Chain of PI3Kα (P42336 whole entry, species assumed): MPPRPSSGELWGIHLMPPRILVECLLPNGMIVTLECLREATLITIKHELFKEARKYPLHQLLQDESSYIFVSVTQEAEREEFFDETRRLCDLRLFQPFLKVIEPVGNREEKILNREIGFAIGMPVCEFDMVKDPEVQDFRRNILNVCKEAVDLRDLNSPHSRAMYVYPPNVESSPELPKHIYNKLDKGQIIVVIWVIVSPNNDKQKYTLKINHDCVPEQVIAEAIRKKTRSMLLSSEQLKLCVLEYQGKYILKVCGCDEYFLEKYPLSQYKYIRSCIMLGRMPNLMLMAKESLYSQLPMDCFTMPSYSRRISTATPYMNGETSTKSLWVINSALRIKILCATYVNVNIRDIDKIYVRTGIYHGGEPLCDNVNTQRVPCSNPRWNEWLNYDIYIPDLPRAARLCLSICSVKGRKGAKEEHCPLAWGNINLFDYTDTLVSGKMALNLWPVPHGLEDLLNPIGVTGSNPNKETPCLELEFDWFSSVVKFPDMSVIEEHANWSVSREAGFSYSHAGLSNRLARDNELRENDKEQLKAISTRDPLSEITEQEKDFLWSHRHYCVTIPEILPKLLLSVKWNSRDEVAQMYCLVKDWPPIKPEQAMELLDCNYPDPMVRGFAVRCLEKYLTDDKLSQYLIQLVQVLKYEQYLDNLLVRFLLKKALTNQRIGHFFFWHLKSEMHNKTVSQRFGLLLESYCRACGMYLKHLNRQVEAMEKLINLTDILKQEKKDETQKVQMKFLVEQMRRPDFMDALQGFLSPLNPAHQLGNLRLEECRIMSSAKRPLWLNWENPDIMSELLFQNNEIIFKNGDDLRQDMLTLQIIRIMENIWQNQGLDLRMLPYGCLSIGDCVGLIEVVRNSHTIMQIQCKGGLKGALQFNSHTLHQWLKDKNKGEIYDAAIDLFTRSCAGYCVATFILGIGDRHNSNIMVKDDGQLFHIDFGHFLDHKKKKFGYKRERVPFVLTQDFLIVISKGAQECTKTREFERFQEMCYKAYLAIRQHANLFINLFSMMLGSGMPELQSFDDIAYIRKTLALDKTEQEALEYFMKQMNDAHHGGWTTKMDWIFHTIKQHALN
Chain of PI3Kα (P27986 whole entry partner, species assumed): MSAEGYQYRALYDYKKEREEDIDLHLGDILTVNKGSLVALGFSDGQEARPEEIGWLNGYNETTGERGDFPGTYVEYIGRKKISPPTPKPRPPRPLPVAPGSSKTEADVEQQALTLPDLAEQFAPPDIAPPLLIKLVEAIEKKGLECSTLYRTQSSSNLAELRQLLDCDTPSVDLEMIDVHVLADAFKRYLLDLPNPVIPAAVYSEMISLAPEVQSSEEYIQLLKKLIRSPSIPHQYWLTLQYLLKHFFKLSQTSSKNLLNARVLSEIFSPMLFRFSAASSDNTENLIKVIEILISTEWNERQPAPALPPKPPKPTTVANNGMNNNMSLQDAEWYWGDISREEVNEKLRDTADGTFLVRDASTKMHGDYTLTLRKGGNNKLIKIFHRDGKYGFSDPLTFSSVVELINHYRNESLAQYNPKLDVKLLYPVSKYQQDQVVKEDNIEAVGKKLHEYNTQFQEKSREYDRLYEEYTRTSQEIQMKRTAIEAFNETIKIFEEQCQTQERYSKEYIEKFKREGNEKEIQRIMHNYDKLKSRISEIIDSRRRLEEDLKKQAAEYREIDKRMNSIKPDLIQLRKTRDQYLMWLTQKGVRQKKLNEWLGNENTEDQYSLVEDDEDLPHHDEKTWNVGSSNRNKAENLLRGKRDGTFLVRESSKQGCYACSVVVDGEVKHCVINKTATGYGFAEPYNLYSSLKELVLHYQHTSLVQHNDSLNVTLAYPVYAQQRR
Experimental: (§2) We assumed that electronic effects might influence the inhibitory activity of compounds against PI3Kα. […] PI3K reactions were performed in 50 mM HEPES at pH 7.5 with 1 mM EGTA, 100 mM NaCl, 3 mM MgCl2, 2 mM DTT, and 0.03% CHAPS. All tested compounds were dissolved in 100% DMSO. PIP2 and ATP were used as substrates, and the final reaction volume was 10 μL. […] After incubating for 1 h at room temperature, the reactions were quenched by adding 10 μL of Kinase-Glo reagent. Raw data were collected from Flexstation program.

DU145 = test: Antiproliferative CCK8 assay, DU145; assay type: cell-based; conditions: Homo sapiens, DU-145, prostate cancer cell, 72 h incubation, average of three replicates, read-out: Relative IC50 against tumor cell line DU145
Experimental: as §1

Hela = test: Antiproliferative CCK8 assay, Hela; assay type: cell-based; conditions: Homo sapiens, 72 h incubation, average of three replicates, read-out: Relative IC50 against tumor cell line Hela
Experimental: as §1

PI3Kβ = PI3Kβ (Homo sapiens, UniProt P42338); test: PI3K enzymatic activity assay, PI3Kβ; assay type: biochemical
Chain of PI3Kβ (P42338 whole entry, species assumed): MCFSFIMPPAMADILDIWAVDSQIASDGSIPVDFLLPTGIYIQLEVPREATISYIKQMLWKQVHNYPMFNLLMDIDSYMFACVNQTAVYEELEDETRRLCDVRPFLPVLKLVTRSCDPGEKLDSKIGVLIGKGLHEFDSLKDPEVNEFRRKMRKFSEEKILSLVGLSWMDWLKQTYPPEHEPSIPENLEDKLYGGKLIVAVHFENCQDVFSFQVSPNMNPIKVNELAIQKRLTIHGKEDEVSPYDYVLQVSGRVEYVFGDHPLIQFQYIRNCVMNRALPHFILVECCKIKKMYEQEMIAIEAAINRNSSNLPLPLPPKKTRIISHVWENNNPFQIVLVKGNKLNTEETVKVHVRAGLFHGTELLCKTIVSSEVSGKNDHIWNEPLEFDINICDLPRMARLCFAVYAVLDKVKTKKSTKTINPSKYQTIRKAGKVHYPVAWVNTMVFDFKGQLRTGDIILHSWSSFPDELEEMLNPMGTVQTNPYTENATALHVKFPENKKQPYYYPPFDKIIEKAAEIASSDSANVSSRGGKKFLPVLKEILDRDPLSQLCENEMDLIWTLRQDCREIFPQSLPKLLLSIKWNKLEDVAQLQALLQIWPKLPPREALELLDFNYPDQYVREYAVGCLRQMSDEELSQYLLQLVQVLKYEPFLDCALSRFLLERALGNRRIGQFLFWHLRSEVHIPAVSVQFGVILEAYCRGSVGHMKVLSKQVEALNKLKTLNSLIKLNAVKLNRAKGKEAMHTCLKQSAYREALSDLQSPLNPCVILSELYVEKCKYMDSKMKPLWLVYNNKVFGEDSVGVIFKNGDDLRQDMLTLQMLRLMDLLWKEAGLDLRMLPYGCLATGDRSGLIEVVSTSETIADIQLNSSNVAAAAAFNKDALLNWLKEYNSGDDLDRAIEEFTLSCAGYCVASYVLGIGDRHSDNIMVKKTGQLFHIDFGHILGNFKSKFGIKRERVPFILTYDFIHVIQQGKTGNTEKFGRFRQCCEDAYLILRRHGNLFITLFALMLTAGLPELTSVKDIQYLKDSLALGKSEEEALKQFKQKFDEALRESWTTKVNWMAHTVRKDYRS
Chain of PI3Kβ (P27986 whole entry partner, species assumed): as the sequence (P27986 whole entry partner, species assumed) above
Experimental: as §2

PI3Kγ = PI3Kγ (Homo sapiens, UniProt P48736); test: PI3K enzymatic activity assay, PI3Kγ; assay type: biochemical
Chain of PI3Kγ (P48736 whole entry, species assumed): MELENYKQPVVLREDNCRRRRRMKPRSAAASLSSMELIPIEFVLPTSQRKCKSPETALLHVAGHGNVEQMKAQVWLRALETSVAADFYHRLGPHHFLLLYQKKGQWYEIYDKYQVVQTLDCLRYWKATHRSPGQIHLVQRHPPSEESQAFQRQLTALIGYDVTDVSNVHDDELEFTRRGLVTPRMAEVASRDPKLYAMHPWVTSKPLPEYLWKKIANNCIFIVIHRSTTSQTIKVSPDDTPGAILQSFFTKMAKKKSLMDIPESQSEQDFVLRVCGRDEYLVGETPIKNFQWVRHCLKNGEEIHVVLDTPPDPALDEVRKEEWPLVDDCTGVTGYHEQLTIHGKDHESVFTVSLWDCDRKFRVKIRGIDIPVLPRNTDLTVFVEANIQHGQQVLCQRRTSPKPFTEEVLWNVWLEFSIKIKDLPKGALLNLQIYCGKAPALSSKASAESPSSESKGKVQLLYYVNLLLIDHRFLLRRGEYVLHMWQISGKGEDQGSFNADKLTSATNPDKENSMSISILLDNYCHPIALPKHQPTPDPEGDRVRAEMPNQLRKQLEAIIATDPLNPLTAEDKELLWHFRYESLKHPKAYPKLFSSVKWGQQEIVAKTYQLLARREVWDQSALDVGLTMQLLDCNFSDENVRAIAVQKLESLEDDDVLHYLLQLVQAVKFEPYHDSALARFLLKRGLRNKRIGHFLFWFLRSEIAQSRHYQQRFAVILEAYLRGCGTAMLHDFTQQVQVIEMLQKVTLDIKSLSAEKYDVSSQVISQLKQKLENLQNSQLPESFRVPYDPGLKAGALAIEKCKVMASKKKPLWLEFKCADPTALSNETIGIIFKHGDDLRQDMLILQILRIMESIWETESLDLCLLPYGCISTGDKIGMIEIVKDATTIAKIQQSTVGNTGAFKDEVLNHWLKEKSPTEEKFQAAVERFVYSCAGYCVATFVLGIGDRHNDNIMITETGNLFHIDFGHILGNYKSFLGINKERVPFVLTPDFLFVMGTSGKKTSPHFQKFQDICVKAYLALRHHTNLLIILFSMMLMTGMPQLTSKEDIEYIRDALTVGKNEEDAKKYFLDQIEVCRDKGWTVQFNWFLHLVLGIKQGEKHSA
Experimental: as §2

PI3Kδ = PI3Kδ (Homo sapiens, UniProt O00329); test: PI3K enzymatic activity assay, PI3Kδ; assay type: biochemical
Chain of PI3Kδ (O00329 whole entry, species assumed): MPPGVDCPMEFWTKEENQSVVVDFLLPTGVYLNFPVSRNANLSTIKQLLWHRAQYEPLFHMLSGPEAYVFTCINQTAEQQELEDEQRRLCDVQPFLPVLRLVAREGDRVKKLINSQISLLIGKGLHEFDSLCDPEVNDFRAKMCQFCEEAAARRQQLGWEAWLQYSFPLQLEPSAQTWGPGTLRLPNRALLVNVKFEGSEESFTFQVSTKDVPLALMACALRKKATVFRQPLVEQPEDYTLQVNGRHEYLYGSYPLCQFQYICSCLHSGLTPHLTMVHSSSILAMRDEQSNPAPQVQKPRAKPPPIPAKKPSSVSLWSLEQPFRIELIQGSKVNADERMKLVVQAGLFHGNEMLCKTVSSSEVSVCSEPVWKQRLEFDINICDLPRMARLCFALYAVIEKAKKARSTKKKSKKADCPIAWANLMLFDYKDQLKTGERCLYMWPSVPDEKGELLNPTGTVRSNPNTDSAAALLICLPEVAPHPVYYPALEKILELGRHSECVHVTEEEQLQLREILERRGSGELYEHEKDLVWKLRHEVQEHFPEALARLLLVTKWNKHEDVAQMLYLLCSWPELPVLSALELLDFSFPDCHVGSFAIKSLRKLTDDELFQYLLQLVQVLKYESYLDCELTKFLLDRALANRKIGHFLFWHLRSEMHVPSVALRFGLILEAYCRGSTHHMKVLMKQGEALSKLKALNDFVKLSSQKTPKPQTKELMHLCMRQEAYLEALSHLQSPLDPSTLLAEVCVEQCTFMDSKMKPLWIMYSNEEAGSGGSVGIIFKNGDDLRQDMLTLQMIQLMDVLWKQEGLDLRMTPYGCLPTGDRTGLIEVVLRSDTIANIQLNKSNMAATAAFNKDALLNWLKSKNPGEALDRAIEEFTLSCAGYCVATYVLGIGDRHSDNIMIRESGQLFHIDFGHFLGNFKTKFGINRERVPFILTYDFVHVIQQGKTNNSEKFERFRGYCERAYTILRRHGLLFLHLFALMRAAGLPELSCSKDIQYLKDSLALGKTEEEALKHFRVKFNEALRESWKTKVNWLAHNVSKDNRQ
Chain of PI3Kδ (P27986 whole entry partner, species assumed): as the sequence (P27986 whole entry partner, species assumed) above
Experimental: as §2

[1] = average of three replicates, 25 μM ATP, 50 μM PIP2, 1 h, room temperature, read-out: IC50, inhibition against PI3Kα

SMILES	IC50 (U937)	IC50 (SK-BR-3)	IC50 (PC3)	IC50 (MOLT-4)	IC50 (K562)	IC50 (MCF-7)	IC50 (PI3Kα; [1])	IC50 (DU145)	IC50 (Hela)	IC50 (PI3Kα)	IC50 (PI3Kβ)	IC50 (PI3Kγ)	IC50 (PI3Kδ)
CCc1cc(O)c(O)c2c1[C@]1(C)CC[C@H]3C(C)(C)CCC[C@]3(C)[C@H]1C2 [Compound 4, (4aS,6aR,11aR,11bS)-7-Ethyl-4,4,6a,11b-tetramethyl-2,3,4,4a,5,6,6a,11,11a,11b-decahydro-1H-benzo [a]fluorene-9,10-diol]	> 30 µM	> 30 µM	> 30 µM	> 30 µM	> 30 µM	> 30 µM	83.7 µM	> 30 µM	> 30 µM	–	–	–	–
CCc1cc(OC)c(OC)c2c1[C@]1(C)CC[C@H]3C(C)(C)CCC[C@]3(C)[C@H]1C2 [Compound 20, (4aS,6aR,11aR,11bS)-7-Ethyl-9,10-diMethoxy-4,4,6a,11b-tetramethyl-2,3,4,4a,5,6,6a,11,11a,11b-decahydro-1H-benzo[a]fluorene]	–	–	–	–	–	–	> 100 µM	–	–	–	–	–	–
CC1(C)CCC[C@]2(C)[C@H]3Cc4c(O)c(O)cc(C(=O)O)c4[C@]3(C)CC[C@@H]12 [Compound 2, (4aS,6aR,11aR,11bS)-9,10-diHydroxy-4,4,6a,11b-tetramethyl-2,3,4,4a,5,6,6a,11,11a,11b-decahydro-1H-benzo[a]fluorene-7-carboxylic acid]	–	–	> 30 µM	–	> 30 µM	> 30 µM	20.7 µM	> 30 µM	–	–	–	–	–
CC(=O)c1cc(O)c(O)c2c1[C@]1(C)CC[C@H]3C(C)(C)CCC[C@]3(C)[C@H]1C2 [Compound 3, 1-((4aS,6aR,11aR,11bS)-9,10-diHydroxy-4,4,6a,11b-tetramethyl-2,3,4,4a,5,6,6a,11,11a,11b-decahydro-1H-benzo[a]fluoren-7-yl)ethanone]	> 30 µM	> 30 µM	> 30 µM	22.3 µM	> 30 µM	> 30 µM	8.76 µM	> 30 µM	> 30 µM	–	–	–	–
CC1(C)CCC[C@]2(C)[C@H]3Cc4c(O)c(O)cc(C#N)c4[C@]3(C)CC[C@@H]12 [Compound 6, (4aS,6aR,11aR,11bS)-9,10-diHydroxy-4,4,6a,11b-tetramethyl-2,3,4,4a,5,6,6a,11,11a,11b-decahydro-1H-benzo[a]fluorene-7-carbonitrile]	12.8 µM	> 30 µM	> 30 µM	2.89 µM	> 30 µM	16.5 µM	49.5 µM	8.13 µM	12.1 µM	–	–	–	–
COC(=O)c1cc(O)c(O)c2c1[C@]1(C)CC[C@H]3C(C)(C)CCC[C@]3(C)[C@H]1C2 [Compound 1, Pelorol]	> 30 µM	> 30 µM	> 30 µM	> 30 µM	> 30 µM	> 30 µM	–	72.7 µM	> 30 µM	38.2 µM	–	–	–
CC1(C)CCC[C@]2(C)[C@H]3Cc4c(O)c(O)cc(C=O)c4[C@]3(C)CC[C@@H]12 [Compound 5, (4aS,6aR,11aR,11bS)-9,10-diHydroxy-4,4,6a,11b-tetramethyl-2,3,4,4a,5,6,6a,11,11a,11b-decahydro-1H-benzo[a]fluorene-7-carbaldehyde]	5.99 µM	19.1 µM	18.4 µM	4.27 µM	16.1 µM	38.9 µM	5.06 µM	9.01 µM	13.2 µM	–	8.9 µM	> 100 µM	> 100 µM
